Results on 9 compounds are retold here after ChEMBL document CHEMBL1201862, “PubChem BioAssay data set” (2004).

Among the test systems are HOP-92; SF-539; HT-29; RXF 393; KM12; SK-MEL-2; SK-MEL-28; NCI-H522; A549; SW-620; HCT-116; IGROV-1; UACC-62; HOP-62; K562; OVCAR-5; UACC-257; CCRF-CEM; HL-60; SNB-75.
Holding throughout (experiment): inhibition of tumour cell growth, NCI panel, 48 h

Structures are written as SMILES.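 96-well plates; 48 h exposure; 5 concentrations. Endpoints by linear interpolation between flanking doses. Not reached: highest tested concentration assigned. GI50: concentration for 50% inhibition of growth.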 Activity calls are given as the source filed them. Rule as the data show it: active = GI50 up to about 1.1 µM and inactive = higher. Where only a bound is given, the exact number is not on record here.

For the compound `N/C(=N\O)N/N=C/c1ncccc1O`, the GI50 with HOP-92 was 61.7 µM (inactive); in the test with SF-539 it was 19.7 µM (inactive); in the test with HT-29, 13.4 µM (inactive); with RXF 393, 38.2 µM (inactive); with KM12 it was 5.81 µM (inactive); in the test with SK-MEL-2 it was 31.3 µM (inactive). The GI50 with SK-MEL-28 was 45.9 µM (inactive); with NCI-H522, 15.1 µM (inactive); with A549, 10.1 µM (inactive); in the test with SW-620 it was 22 µM (inactive); in the test with HCT-116, 11.8 µM (inactive); with IGROV-1, 16.2 µM (inactive). The GI50 with UACC-62 is 10.3 µM (inactive); with HOP-62 it was 19.8 µM (inactive); with K562 it was 4.82 µM (inactive); in the test on OVCAR-5, 31.5 µM (inactive); with UACC-257, 26.1 µM (inactive); with CCRF-CEM, 6.43 µM (inactive). Also, the GI50 in the test on HL-60 was 2.41 µM (inactive); with SNB-75, 17.9 µM (inactive).
As to `CCCCC(CC)C(=O)Oc1ccc(C(=O)c2ccccc2)c(O)c1` (stereo not given), the GI50 was 23.2 µM (inactive) with HOP-92; 5.46 µM (inactive) in the test with SF-539; 55.7 µM (inactive) with HT-29; 49.8 µM (inactive) with RXF 393; 15.4 µM (inactive) with KM12; 56.4 µM (inactive) in the test with SK-MEL-2. In addition, the GI50 in the test with SK-MEL-28 was 36.8 µM (inactive); with NCI-H522, 31.7 µM (inactive); in the test on A549 it was 46.8 µM (inactive); in the test on SW-620, 56.4 µM (inactive); in the test with HCT-116, 43.3 µM (inactive); with IGROV-1 it was 55.7 µM (inactive). The GI50 was 32 µM (inactive) with UACC-62; 55 µM (inactive) in the test with HOP-62; 25.9 µM (inactive) in the test with K562; 38.5 µM (inactive) in the test on OVCAR-5; 38.5 µM (inactive) in the test on UACC-257; 43.6 µM (inactive) in the test with CCRF-CEM. Also, the GI50 in the test with HL-60 was 55.1 µM (inactive); with SNB-75 it was 23.3 µM (inactive).
For `N#C/C(=C\c1ccc(Cl)cc1)c1nc2ccccc2c(=O)[nH]1`, the GI50 with HOP-92 was 11 µM (inactive); in the test with SF-539 it was > 100 µM (inactive); in the test on HT-29, > 100 µM (inactive); with RXF 393, 81.5 µM (inactive); in the test on KM12 it was > 100 µM (inactive); in the test on SK-MEL-2, > 100 µM (inactive). The GI50 in the test on SK-MEL-28 was > 100 µM (inactive); in the test with NCI-H522, 37.4 µM (inactive); in the test on A549, > 100 µM (inactive); in the test with SW-620, > 100 µM (inactive); in the test on HCT-116, > 100 µM (inactive); in the test on IGROV-1, > 100 µM (inactive). Besides, the GI50 with UACC-62 was 43.7 µM (inactive); with HOP-62, 33 µM (inactive); with K562, > 100 µM (inactive); with OVCAR-5 it was > 100 µM (inactive); in the test with UACC-257, > 100 µM (inactive); in the test on CCRF-CEM, > 100 µM (inactive). In addition, the GI50 in the test with HL-60 was > 100 µM (inactive); in the test with SNB-75, 17.1 µM (inactive).
Regarding `O=C(NN1C(=O)CSC1c1ccc(C(F)(F)F)cc1)c1ccncc1` (stereo not given), the GI50 in the test with HOP-92 is > 100 µM (inactive); with SF-539, > 100 µM (inactive); in the test on HT-29, > 100 µM (inactive); in the test with RXF 393, 97.3 µM (inactive); with KM12, > 100 µM (inactive); in the test on SK-MEL-2 it was > 100 µM (inactive). Further, the GI50 with SK-MEL-28, in the test with NCI-H522, in the test with A549, with SW-620, with HCT-116 and in the test on IGROV-1 was > 100 µM (inactive) throughout. For the same compound, the GI50 in the test on UACC-62, in the test on HOP-62, in the test with K562, in the test with OVCAR-5, with UACC-257 and with CCRF-CEM was > 100 µM (inactive) throughout. Moreover, the GI50 with HL-60 and in the test with SNB-75 was > 100 µM (inactive) each time.
On to `O=c1oc2ccccc2n1P(=O)(Oc1ccc(Cl)cc1)n1c(=O)oc2ccccc21`, for which the GI50 in the test with HOP-92 is > 100 µM (inactive); with SF-539, > 100 µM (inactive); with HT-29 it was > 100 µM (inactive); with RXF 393 it was > 100 µM (inactive); in the test with KM12 it was 85.5 µM (inactive); in the test on SK-MEL-2, 55 µM (inactive). Besides, the GI50 in the test with SK-MEL-28, in the test on NCI-H522, in the test on A549, in the test on SW-620, with HCT-116 and with IGROV-1 was > 100 µM (inactive) in each case. The GI50 with UACC-62 was 61 µM (inactive); in the test on HOP-62, > 100 µM (inactive); with K562, 42.2 µM (inactive); with OVCAR-5, > 100 µM (inactive); with UACC-257 it was > 100 µM (inactive); in the test on CCRF-CEM, 18.5 µM (inactive). The GI50 in the test with HL-60 was 41.8 µM (inactive); with SNB-75, > 100 µM (inactive).
`Brc1ccc2[nH]cc([C@@H]3CN[C@@H](c4c[nH]c5ccc(Br)cc45)CN3)c2c1`: the GI50 in the test on HOP-92 was 1.36 µM (inactive); in the test on SF-539, 10.6 µM (inactive); with HT-29, 5.71 µM (inactive); with RXF 393, 5.48 µM (inactive); in the test on KM12, 2.07 µM (inactive); in the test on SK-MEL-2, 8.95 µM (inactive). For the same compound, the GI50 in the test on SK-MEL-28 is 13.7 µM (inactive); with NCI-H522 it was 2.21 µM (inactive); in the test with A549 it was 6.15 µM (inactive); with SW-620, 4.18 µM (inactive); in the test on HCT-116, 4.18 µM (inactive); in the test on IGROV-1 it was 3.41 µM (inactive). The GI50 was 7.52 µM (inactive) in the test with UACC-62; 8.18 µM (inactive) with HOP-62; 1.77 µM (inactive) with K562; 7.89 µM (inactive) in the test on OVCAR-5; 8.95 µM (inactive) in the test with UACC-257; 2.16 µM (inactive) with CCRF-CEM. Also, the GI50 in the test on HL-60 was 1.82 µM (inactive); with SNB-75 it was 2.78 µM (inactive).
For the compound `CCOC(=O)CCc1c(C)c2c(O)cc(O)cc2oc1=O`, the GI50 with HOP-92 is > 100 µM (inactive); with SF-539 it was > 100 µM (inactive); in the test on HT-29, > 100 µM (inactive); in the test with RXF 393, > 78.9 µM (inactive); with KM12 it was > 100 µM (inactive); in the test with SK-MEL-2 it was > 76.4 µM (inactive). The GI50 in the test on SK-MEL-28 is > 100 µM (inactive); with NCI-H522 it was > 100 µM (inactive); with A549, > 100 µM (inactive); with SW-620, > 100 µM (inactive); with HCT-116 it was 15.8 µM (inactive); with IGROV-1, > 100 µM (inactive). In addition, the GI50 was > 100 µM (inactive) with UACC-62; > 100 µM (inactive) with HOP-62; > 100 µM (inactive) in the test on K562; > 100 µM (inactive) with OVCAR-5; > 100 µM (inactive) in the test with UACC-257; 26 µM (inactive) in the test on CCRF-CEM. Besides, the GI50 with HL-60 was 42.1 µM (inactive); in the test with SNB-75, > 100 µM (inactive).
Turning to `Nc1c(S(=O)(=O)O)cc(S(=O)(=O)O)c2ccc(/N=N/c3ccc(/C=C/c4ccc(/N=N/c5ccc6c(S(=O)(=O)O)cc(S(=O)(=O)O)c(N)c6c5O)cc4S(=O)(=O)O)c(S(=O)(=O)O)c3)c(O)c12`, the GI50 in the test on HOP-92 was 35.6 µM (inactive); in the test with SF-539 it was > 100 µM (inactive); in the test with HT-29, > 100 µM (inactive); in the test on RXF 393, > 85.1 µM (inactive); in the test on KM12, > 100 µM (inactive); in the test with SK-MEL-2 it was > 100 µM (inactive). The GI50 in the test with SK-MEL-28 was > 100 µM (inactive); with NCI-H522, 54.1 µM (inactive); with A549, 75 µM (inactive); in the test with SW-620, > 100 µM (inactive); with HCT-116, > 100 µM (inactive); with IGROV-1 it was 90.2 µM (inactive). Moreover, the GI50 is > 100 µM (inactive) with UACC-62; > 100 µM (inactive) in the test on HOP-62; > 100 µM (inactive) in the test on K562; 59.4 µM (inactive) in the test with OVCAR-5; > 100 µM (inactive) in the test on UACC-257; > 100 µM (inactive) in the test on CCRF-CEM. The figures for the GI50 in the test with HL-60 and in the test on SNB-75 were 36.1 µM (inactive) and 56.9 µM (inactive), respectively.
As to `CC1=C(SCCO)C(=O)c2ccccc2C1=O`, the GI50 is 1.7 µM (inactive) in the test on HOP-92; 12.1 µM (inactive) in the test with SF-539; 19.3 µM (inactive) with HT-29; 13.4 µM (inactive) in the test on RXF 393; 13.6 µM (inactive) with KM12; 11.7 µM (inactive) in the test with SK-MEL-2. In addition, the GI50 in the test on SK-MEL-28 was 11 µM (inactive); in the test on NCI-H522, 3.72 µM (inactive); in the test with A549 it was 15.9 µM (inactive); in the test on SW-620, 12.2 µM (inactive); in the test on HCT-116, 4.76 µM (inactive); in the test with IGROV-1 it was 14.2 µM (inactive). Also, the GI50 in the test with UACC-62 is 14.9 µM (inactive); with HOP-62, 15.9 µM (inactive); with K562, 3.18 µM (inactive); in the test with OVCAR-5, 17.9 µM (inactive); in the test with UACC-257 it was 13 µM (inactive); in the test with CCRF-CEM, 1.82 µM (inactive). Further, the figures for the GI50 in the test on HL-60 and with SNB-75 were 0.55 µM (active) and 16.5 µM (inactive), respectively.
